Data published in patent US9358262B2, “Use of antioxidant-enriched fermented blueberry extracts in the treatment of diabetes” (priority 2003, dated 2016).
Marks after values point to notes of the source that are not given here.

Tested on: KKA^y mice
Assay: Chronic 4-week treatment of diabetic KKA^y mice in drinking water
Assay type: in vivo, mouse
Description: Mice were fasted for 16 h. A glucose solution was administered by intragastric gavage at a dose of 1 g/kg body weight. The blood glucose concentration was measured at 0, 30, 60, 90, 120 min after glucose administration in the blood collected from the tip of the tail vein, using an Accu-Chek glucose meter (Roche, Montreal, QC, Canada).
At the end of the experiment, blood samples were collected from renal artery during exsanguinations carried out under anesthesia using heparinized tools. The samples were centrifuged at 3000 g for 10 min at 4° C. The plasma samples were used for the analyses of biochemical parameters. Plasma adiponectin, insulin and leptin were measured using radioimmuno assay (RIA) kits (Millipore, Montreal, QC, Canada).
In preliminary experiments, three different doses of BJ, namely 20, 40, 80 ml/kg/day, were incorporated in the drinking water and provided to mice for one week. […] Therefore, this dose was used for the chronic treatment studies described here.
Forty-two 7 week-old KKA^y mice were randomly divided into 6 groups (n=7) which received either water, normal blueberry juice (NJ) (80 ml/kg/day), biotransformed blueberry juice (BJ) (80 ml/kg/day; prepared as described in Example 8), or Metformin (0.85 g/kg/day) (Meglasson M D et al., supra) in drinking water. […] The sixth and final group received SW but had unrestricted access to solid food. Baseline measurements of fed blood glucose levels, body weight, food intake and water consumption were taken daily at 11.00 a.m. At the onset of experiments and after 4 weeks, an oral glucose tolerance test (OGTT) was performed, as described in Example 8.

[1] = NJ, BJ 80 ml/kg/day, MET 0.85 g/kg/day, 4 weeks

## CN(C)C(=N)N=C(N)N [MET, Metformin]
4 weeks
  Rise of circulating adiponectin above values of control animals: neither NJ nor Metformin treatments could modify the low level of adiponectin
4 weeks, BJ effect not statistically significant
  Reduction of circulating insulin levels vs controls: normalized
4 weeks, glucose 1 g/kg by gavage
  Drop of OGTT AUC between the onset and the end of treatment: 38%
[1]
  Adiponectin (plasma): 5.9 ± 0.6^a μg/ml
  Insulin (plasma): 1.7 ± 0.5^b ng/ml
  Leptin (plasma): 27.6 ± 2.9^a ng/ml
  Reduction of food intake as compared to controls: 30%
Chronic treatment in drinking water
  Time to reach the maximum (BJ) or normalising (Metformin) effect on glycemia: ≤ 4 days
During 4-week treatment
  Glycemia level (fed state): 10 mM
End of the 4-week treatment period
  Body weight loss as compared to controls: 4%
